Data on 16 compounds can be found in patent publication US11407736B2 (priority 2019, dated 2022).

In one test the target is RIPK1 (Homo sapiens (Human), UniProt Q13546). Briefly: RIPK1 ADP-Glo biochemical kinase assay. The following applies: read-out: RIPK1 ADP-Glo Kinase (IC50). The method, then: The final reaction volume was 5.0ul.
Adding 5 μl of ADP-Glo™ terminated the reaction.
On the technique in general: ADP-Glo first removes unused ATP, then detects ADP through luciferase.

A further test relates to L929 cells. Briefly: L929 cell necroptosis assay (TNFa + zVAD, CellTiter-Glo). The format is cell-based, murine. An outline of the steps: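 Necroptosis was read as CellTiter-Glo luminescence 18 hours after TNFa stimulation at 37° C, 5% CO2. Prior to that, L929 cells (10K/well, plated 18 h) received fresh medium with 40 uM zVAD-fmk plus 4-fold serially diluted compound.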
Background: Cellular ATP, detected with luciferase, serves as a proxy for viable cell number.

A further test has as its system U937 cells. Briefly: U937 cell necroptosis assay (TNFa + zVAD, CellTiter-Glo). The format is cell-based, human. Summed up: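 Necroptosis was induced with TNFa at 2 ng/mL final for 18 h at 37 °C, following 1 h compound pre-incubation in the presence of zVAD-fmk (60 uM for U937 plating medium, 40 uM for L929 medium). Luminescent CellTiter-Glo signal gave relative cell survival.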

The mark [1] stands for this setting: Mus musculus, L929, L929 cells, TNFa + zVAD, read-out: L929-CTG-recovery, L929, TNFa + zVAD (IC50).
Setting [2] is: Homo sapiens, U-937, U937 cells, TNFa + zVAD, read-out: U937 Zvad TNF CTG Recovery, U937, TNFa + zVAD (IC50).

Structures can show the parent of a compound that is named as a salt. Where two headings read alike, the source gives them in different places.

Chain of RIPK1 (Q13546 whole entry, species assumed): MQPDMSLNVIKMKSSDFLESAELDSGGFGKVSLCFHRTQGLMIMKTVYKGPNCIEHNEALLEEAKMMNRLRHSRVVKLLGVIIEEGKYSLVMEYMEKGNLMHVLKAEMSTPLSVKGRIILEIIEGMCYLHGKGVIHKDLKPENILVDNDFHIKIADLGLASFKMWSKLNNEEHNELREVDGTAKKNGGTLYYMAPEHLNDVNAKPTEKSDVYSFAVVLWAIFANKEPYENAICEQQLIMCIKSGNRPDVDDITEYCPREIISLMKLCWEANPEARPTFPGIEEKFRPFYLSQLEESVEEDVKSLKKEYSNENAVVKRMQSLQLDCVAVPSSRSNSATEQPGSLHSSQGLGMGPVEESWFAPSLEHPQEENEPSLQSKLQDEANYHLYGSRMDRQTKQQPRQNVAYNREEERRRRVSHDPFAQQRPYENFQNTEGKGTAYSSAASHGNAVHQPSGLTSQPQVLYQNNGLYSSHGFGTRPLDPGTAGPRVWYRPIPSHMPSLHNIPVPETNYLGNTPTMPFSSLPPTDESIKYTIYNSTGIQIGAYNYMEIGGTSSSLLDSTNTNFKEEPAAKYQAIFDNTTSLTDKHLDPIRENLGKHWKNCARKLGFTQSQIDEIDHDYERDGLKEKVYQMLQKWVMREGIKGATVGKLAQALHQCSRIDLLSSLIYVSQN

Broadly, the IC50 is the concentration that inhibits the measured activity by half. For `CN1C(=O)[C@@H](NC(=O)c2n[nH]c(Cc3ccccc3)n2)COc2ccc(/C=C/C(=O)N3CCCC3)cc21` [Compound I-22, (S,E)-5-benzyl-N-(5-methyl-4-oxo-7-(3-oxo-3-(pyrrolidin-1-yl)prop-1-en-1-yl)-2,3,4,5-tetrahydrobenzo[b][1,4]oxazepin-3-yl)-1H-1,2,4-triazole-3-carboxamide], the IC50 at RIPK1 came out at 48 nM; with L929 cells (setting [1]), 3380 nM; with U937 cells (setting [2]) it was 4.8 nM.
As for `CN1C(=O)[C@@H](NC(=O)c2cc(Oc3ccccc3)ccn2)COc2ccc(C#CC(C)(C)N)cc21` [Compound I-167, (S)—N-(7-(3-amino-3-methylbut-1-yn-1-yl)-5-methyl-4-oxo-2,3,4,5-tetrahydrobenzo[b][1,4]oxazepin-3-yl)-4-phenoxypicolinamide hydrochloride], the IC50 on RIPK1 (hydrochloride) amounted to 17.5 nM; in the test on L929 cells (read-out: L929-CTG-recovery, L929, TNFa + zVAD (IC50), L929 cells, TNFa + zVAD, hydrochloride), 1210 nM; with U937 cells (read-out: U937 Zvad TNF CTG Recovery, U937, TNFa + zVAD (IC50), U937 cells, TNFa + zVAD, hydrochloride) it was 5.3 nM.
For `CCN1C(=O)[C@@H](NC(=O)c2n[nH]c(Cc3ccccc3)n2)COc2ccc(C#CC(C)(C)O)cc21` [Compound I-91, (S)-5-benzyl-N-(5-ethyl-7-(3-hydroxy-3-methylbut-1-yn-1-yl)-4-oxo-2,3,4,5-tetrahydrobenzo[b][1,4]oxazepin-3-yl)-1H-1,2,4-triazole-3-carboxamide], the results for the IC50 on RIPK1, with L929 cells (setting [1]) and with U937 cells (setting [2]) were 388 nM, 3.7 nM and 19.8 nM, respectively.
Regarding `CN1C(=O)[C@@H](NC(=O)c2ncn(Cc3ccccc3F)n2)COc2ccc(CCC(=O)Nc3ccc4cn[nH]c4c3)cc21` [Compound I-7, (S)—N-(7-(3-((1H-indazol-6-yl)amino)-3-oxopropyl)-5-methyl-4-oxo-2,3,4,5-tetrahydrobenzo[b][1,4]oxazepin-3-yl)-1-(2-fluorobenzyl)-1H-1,2,4-triazole-3-carboxamide], the values for the IC50 at RIPK1, with L929 cells (setting [1]) and in the test with U937 cells (setting [2]) were 21 nM, 1960 nM and 0.9 nM, respectively.
On the same counts, the results for `CN1C(=O)[C@@H](NC(=O)c2cc(Oc3c(F)cccc3F)ccn2)COc2ccc(C#CC(C)(C)O)cc21` [Compound I-118, (S)-4-(2,6-difluorophenoxy)-N-(7-(3-hydroxy-3-methylbut-1-yn-1-yl)-5-methyl-4-oxo-2,3,4,5-tetrahydrobenzo[b][1,4]oxazepin-3-yl)picolinamide] are 27.6 nM, 83 nM and 1 nM.
Taken in the same sequence, the figures for `C[C@H](N)C(=O)OCC(C)(C)C#Cc1ccc2c(c1)N(C)C(=O)[C@@H](NC(=O)c1cc(Oc3ccccc3)ccn1)CO2` [Compound I-142, 2,2-dimethyl-4-((S)-5-methyl-4-oxo-3-(4-phenoxypicolinamido)-2,3,4,5-tetrahydrobenzo[b][1,4]oxazepin-7-yl)but-3-yn-1-yl L-alaninate] were 24.2 nM, 77.3 nM and 1.4 nM.
Taken in the same sequence, the figures for `CN1C(=O)[C@@H](NC(=O)c2ncn(Cc3ccccc3)n2)COc2ccc(C#CCCOc3ccc4ncccc4c3)cc21` [Compound I-37, (S)-1-benzyl-N-(5-methyl-4-oxo-7-(4-(quinolin-6-yloxy)but-1-yn-1-yl)-2,3,4,5-tetrahydrobenzo[b][1,4]oxazepin-3-yl)-1H-1,2,4-triazole-3-carboxamide] were 56.5 nM, 0.2 nM and 1 nM.
For `CN1C(=O)[C@@H](NC(=O)c2ccn(Cc3ccccc3)n2)COc2ccc(C#CC(C)(C)O)cc21` [Compound I-77, (S)-1-benzyl-N-(7-(3-hydroxy-3-methylbut-1-yn-1-yl)-5-methyl-4-oxo-2,3,4,5-tetrahydrobenzo[b][1,4]oxazepin-3-yl)-1H-pyrazole-3-carboxamide], the IC50 at RIPK1 was determined as 32.7 nM; in the test with L929 cells (setting [1]), 0.3 nM; with U937 cells (setting [2]) it was 2.8 nM.
In the case of `CN1C(=O)[C@@H](NC(=O)c2cc(Oc3ccccc3)ccn2)COc2ccc(C#CC3(O)CCNCC3)cc21` [Compound I-132, (S)—N-(7-((4-hydroxypiperidin-4-yl)ethynyl)-5-methyl-4-oxo-2,3,4,5-tetrahydrobenzo[b][1,4]oxazepin-3-yl)-4-phenoxypicolinamide], the IC50 at RIPK1 amounted to 30.5 nM; in the test on L929 cells (setting [1]), 4600 nM; in the test on U937 cells (setting [2]) it was 35.9 nM.
In the case of `CN1C(=O)[C@@H](NC(=O)c2cc(Oc3ccccc3)ccn2)COc2ccc(C#CC3(O)CCN(C(=O)c4cc(Oc5ccccc5)ccn4)CC3)cc21` [Compound I-131, (S)—N-(7-((4-hydroxy-1-(4-phenoxypicolinoyl)piperidin-4-yl)ethynyl)-5-methyl-4-oxo-2,3,4,5-tetrahydrobenzo[b][1,4]oxazepin-3-yl)-4-phenoxypicolinamide], the IC50 on RIPK1 came to 446 nM; with L929 cells (setting [1]), 65.8 nM; with U937 cells (setting [2]), 3.7 nM.
Taken in the same sequence, the figures for `CN1C(=O)[C@H](NC(=O)c2n[nH]c(Cc3ccccc3)n2)COc2ccc(C#CC(C)(C)O)cc21` [Compound I-70, (R)-5-benzyl-N-(7-(3-hydroxy-3-methylbut-1-yn-1-yl)-5-methyl-4-oxo-2,3,4,5-tetrahydrobenzo[b][1,4]oxazepin-3-yl)-1H-1,2,4-triazole-3-carboxamide] were 1160 nM, 19.5 nM and 188 nM.
As to `CC(=O)N1CC(F)(C#Cc2ccc3c(c2)N(C)C(=O)[C@@H](NC(=O)c2cc(Oc4ccccc4)ccn2)CO3)C1` [Compound I-191, (S)—N-(7-((1-acetyl-3-fluoroazetidin-3-yl)ethynyl)-5-methyl-4-oxo-2,3,4,5-tetrahydrobenzo[b][1,4]oxazepin-3-yl)-4-phenoxypicolinamide], the IC50 on RIPK1 was found to be 19.7 nM; in the test with L929 cells (setting [1]), 21.5 nM; in the test on U937 cells (setting [2]) it was 0.3 nM.
Turning to `CN1C(=O)[C@@H](NC(=O)n2cc(Cc3ccccc3)cn2)COc2ccc(C#CC3(O)COC3)cc21` [Compound I-216, (S)-4-Benzyl-N-(7-((3-hydroxyoxetan-3-yl)ethynyl)-5-methyl-4-oxo-2,3,4,5-tetrahydrobenzo[b][1,4]oxazepin-3-yl)-1H-pyrazole-1-carboxamide], the half-inhibitory concentration (IC50) at RIPK1 was determined as 18.8 nM; in the test with L929 cells (Mus musculus, L929, read-out: L929-CTG-recovery, L929, TNFa + zVAD (IC50), L929 cells, TNFa + zVAD), 28.5 nM; with U937 cells (Homo sapiens, U-937, read-out: U937 Zvad TNF CTG Recovery, U937, TNFa + zVAD (IC50), U937 cells, TNFa + zVAD) it was 0.5 nM.
Consider `CN1C(=O)[C@@H](NC(=O)c2cc(Oc3ccccc3)ccn2)COc2ccc(C#CC3(OC(=O)NCCCN4CCOCC4)COC3)cc21` [Compound I-130], for which the IC50 on RIPK1 was found to be 30.8 nM; with L929 cells (setting [1]), 89.5 nM; in the test on U937 cells (setting [2]), 1.5 nM.
As for `CN1C(=O)[C@@H](NC(=O)c2ncn(Cc3ccccc3)n2)COc2ccc(C#CC(C)(C)C)cc21` [Compound I-48, (S)-1-benzyl-N-(7-(3,3-dimethylbut-1-yn-1-yl)-5-methyl-4-oxo-2,3,4,5-tetrahydrobenzo[b][1,4]oxazepin-3-yl)-1H-1,2,4-triazole-3-carboxamide], the IC50 at RIPK1 is 62.4 nM; in the test with L929 cells (Mus musculus, L929 cells, TNFa + zVAD, read-out: L929-CTG-recovery, L929, TNFa + zVAD (IC50)), 0.5 nM; with U937 cells (setting [2]) it was 1.6 nM.
For the compound `CN1C(=O)[C@@H](NC(=O)c2ncn(Cc3ccccc3)n2)COc2ccc(C#CC(C)(C)O)cc21` [Compound I-29, (S)-1-benzyl-N-(7-(3-hydroxy-3-methylbut-1-yn-1-yl)-5-methyl-4-oxo-2,3,4,5-tetrahydrobenzo[b][1,4]oxazepin-3-yl)-1H-1,2,4-triazole-3-carboxamide], the IC50 was found to be 12.4 nM on RIPK1, 8.8 nM with L929 cells (setting [1]) and 2.3 nM in the test with U937 cells (setting [2]).
